Reference: ChEMBL document CHEMBL1123367, “Furanose-pyranose isomerization of reduced pyrimidine and cyclic urea ribosides” (J Med Chem, 1986)

Tests used:
[1] = Half-life of the initial pseudo-first-order isomerization at apparent pH 2.0 and 25 degree celsius; assay type: ADME; settings: read-out: T1/2 app (converted)
[2] = Half-life of the initial pseudo-first-order isomerization at apparent pH 1.0 and 25 degree celsius; assay type: ADME; settings: read-out: T1/2 app
[3] = Half-life of the initial pseudo-first-order isomerization at apparent pH 2.8 and 37 degree celsius; assay type: ADME; settings: read-out: T1/2 app (converted)
[4] = Half-life of the initial pseudo-first-order isomerization at apparent pH 1.0 and 37 degree celsius; assay type: ADME; settings: read-out: T1/2 app (converted)
[5] = target: Cytidine deaminase (Mus musculus, UniProt P56389); assay: Compound was tested […] for its ability to inhibit mouse kidney cytidine deaminase (CDA)
Cytidine deaminase, sequence (P56389 whole entry): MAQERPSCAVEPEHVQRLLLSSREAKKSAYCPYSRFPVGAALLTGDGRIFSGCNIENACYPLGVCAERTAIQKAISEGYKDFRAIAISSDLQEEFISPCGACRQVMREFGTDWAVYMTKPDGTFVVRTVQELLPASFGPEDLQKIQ

| half-life [1] | half-life [2] | half-life [3] | half-life [4] | Ki [5] | SMILES |
| --- | --- | --- | --- | --- | --- |
| 2.23 h | < 0.2 h | 5.2 h | 0.63 h | – | O=C1NCCCN1[C@@H]1O[C@H](CO)[C@@H](O)[C@H]1O |
| – | – | – | – | > 50 µM | O=C1NCCCN1C1OC[C@@H](O)[C@H](O)[C@@H]1O (stereo partly specified) |
| – | – | – | – | 6.6 µM | O=C1NCCCCN1[C@@H]1OC[C@@H](O)[C@@H](O)[C@H]1O |
